# ± gives the expanded uncertainty stated by the source.
# Details: Liquid, Gas chromatography
vapor or sublimation pressure (338.15 K) [kPa],vapor or sublimation pressure (348.15 K) [kPa],vapor or sublimation pressure (358.15 K) [kPa],vapor or sublimation pressure (368.15 K) [kPa],vapor or sublimation pressure (378.15 K) [kPa],vapor or sublimation pressure (388.15 K) [kPa],vapor or sublimation pressure (398.15 K) [kPa],vapor or sublimation pressure (408.15 K) [kPa],vapor or sublimation pressure (418.15 K) [kPa],vapor or sublimation pressure (428.15 K) [kPa],vapor or sublimation pressure (438.15 K) [kPa],vapor or sublimation pressure (308.15 K) [kPa],vapor or sublimation pressure (318.15 K) [kPa],vapor or sublimation pressure (328.15 K) [kPa],SMILES
0.003586 ± 0.00076,0.008232 ± 0.0017,0.01804 ± 0.0038,0.03789 ± 0.008,0.07651 ± 0.016,0.149 ± 0.032,0.2806 ± 0.06,0.5124 ± 0.11,0.909 ± 0.19,1.57 ± 0.33,2.645 ± 0.56,–,–,–,C[Si](C)(C)O[Si](C)(C)O[Si](C)(C)O[Si](C)(C)O[Si](C)(C)O[Si](C)(C)O[Si](C)(C)C [hexadecamethylheptasiloxane]
0.002101 ± 0.00045,0.004912 ± 0.001,0.01095 ± 0.0023,0.02337 ± 0.005,0.04791 ± 0.01,0.09466 ± 0.02,0.1807 ± 0.038,0.3344 ± 0.071,0.6006 ± 0.13,–,–,–,–,–,C[Si]1(C)O[Si](C)(C)O[Si](C)(C)O[Si](C)(C)O[Si](C)(C)O[Si](C)(C)O[Si](C)(C)O[Si](C)(C)O1 [hexadecamethylcyclooctasiloxane]
1.259 ± 0.27,2.063 ± 0.44,3.289 ± 0.7,5.113 ± 1.1,–,–,–,–,–,–,–,0.2359 ± 0.05,0.4269 ± 0.091,0.7452 ± 0.16,C[Si]1(C)O[Si](C)(C)O[Si](C)(C)O[Si](C)(C)O1 [octamethylcyclotetrasiloxane]
–,–,–,–,–,0.0004593 ± 9.7e-05,0.001256 ± 0.00027,0.00327 ± 0.00069,0.008134 ± 0.0017,0.01939 ± 0.0041,0.04441 ± 0.0094,–,–,–,C[Si](C)(C)O[Si](C)(C)O[Si](C)(C)O[Si](C)(C)O[Si](C)(C)O[Si](C)(C)O[Si](C)(C)O[Si](C)(C)O[Si](C)(C)O[Si](C)(C)O[Si](C)(C)O[Si](C)(C)C [hexacosamethyldodecasiloxane]
0.0004734 ± 0.0001,0.0012 ± 0.00025,0.002888 ± 0.00061,0.006628 ± 0.0014,0.01455 ± 0.0031,0.03069 ± 0.0065,0.06234 ± 0.013,0.1223 ± 0.026,0.2323 ± 0.049,–,–,–,–,–,C[Si]1(C)O[Si](C)(C)O[Si](C)(C)O[Si](C)(C)O[Si](C)(C)O[Si](C)(C)O[Si](C)(C)O[Si](C)(C)O[Si](C)(C)O1 [octadecamethylcyclononasiloxane]
–,0.0004156 ± 8.8e-05,0.001098 ± 0.00023,0.002752 ± 0.00058,0.006569 ± 0.0014,0.015 ± 0.0032,0.03284 ± 0.007,0.0692 ± 0.015,0.1407 ± 0.03,0.2769 ± 0.059,0.5281 ± 0.11,–,–,–,C[Si](C)(C)O[Si](C)(C)O[Si](C)(C)O[Si](C)(C)O[Si](C)(C)O[Si](C)(C)O[Si](C)(C)O[Si](C)(C)O[Si](C)(C)C [eicosamethylnonasiloxane]
–,–,–,0.0007152 ± 0.00015,0.001861 ± 0.00039,0.00461 ± 0.00098,0.01091 ± 0.0023,0.02475 ± 0.0053,0.054 ± 0.011,0.1136 ± 0.024,0.231 ± 0.049,–,–,–,C[Si](C)(C)O[Si](C)(C)O[Si](C)(C)O[Si](C)(C)O[Si](C)(C)O[Si](C)(C)O[Si](C)(C)O[Si](C)(C)O[Si](C)(C)O[Si](C)(C)C [docosamethyldecasiloxane]
0.0007271 ± 0.00015,0.001846 ± 0.00039,0.004449 ± 0.00094,0.01022 ± 0.0022,0.02248 ± 0.0048,0.04747 ± 0.01,0.09653 ± 0.02,0.1896 ± 0.04,0.3605 ± 0.077,0.6654 ± 0.14,1.194 ± 0.25,–,–,–,C[Si](C)(C)O[Si](C)(C)O[Si](C)(C)O[Si](C)(C)O[Si](C)(C)O[Si](C)(C)O[Si](C)(C)O[Si](C)(C)C [octadecamethyloctasiloxane]
0.01845 ± 0.0039,0.03767 ± 0.008,0.07392 ± 0.016,0.1398 ± 0.03,0.2557 ± 0.054,0.4533 ± 0.096,0.7809 ± 0.17,1.31 ± 0.28,2.143 ± 0.45,3.427 ± 0.73,5.364 ± 1.1,–,–,–,C[Si](C)(C)O[Si](C)(C)O[Si](C)(C)O[Si](C)(C)O[Si](C)(C)O[Si](C)(C)C [tetradecamethylhexasiloxane]
0.01 ± 0.0021,0.0213 ± 0.0045,0.04349 ± 0.0092,0.08542 ± 0.018,0.1619 ± 0.034,0.2968 ± 0.063,0.528 ± 0.11,0.9129 ± 0.19,1.538 ± 0.33,–,–,–,–,–,C[Si]1(C)O[Si](C)(C)O[Si](C)(C)O[Si](C)(C)O[Si](C)(C)O[Si](C)(C)O[Si](C)(C)O1 [tetradecamethylcycloheptasiloxane]
–,–,–,–,–,–,0.0004326 ± 9.2e-05,0.001205 ± 0.00026,0.003194 ± 0.00068,0.008092 ± 0.0017,0.01965 ± 0.0042,–,–,–,C[Si](C)(C)O[Si](C)(C)O[Si](C)(C)O[Si](C)(C)O[Si](C)(C)O[Si](C)(C)O[Si](C)(C)O[Si](C)(C)O[Si](C)(C)O[Si](C)(C)O[Si](C)(C)O[Si](C)(C)O[Si](C)(C)C [octacosamethyltridecasiloxane]
–,–,–,–,0.0005391 ± 0.00011,0.001446 ± 0.00031,0.003689 ± 0.00078,0.008993 ± 0.0019,0.02101 ± 0.0045,0.04716 ± 0.01,0.102 ± 0.022,–,–,–,C[Si](C)(C)O[Si](C)(C)O[Si](C)(C)O[Si](C)(C)O[Si](C)(C)O[Si](C)(C)O[Si](C)(C)O[Si](C)(C)O[Si](C)(C)O[Si](C)(C)O[Si](C)(C)C [tetracosamethylundecasiloxane]
0.09498 ± 0.02,0.1719 ± 0.036,0.3011 ± 0.064,0.5114 ± 0.11,0.8448 ± 0.18,1.36 ± 0.29,2.137 ± 0.45,3.284 ± 0.7,–,–,–,–,–,–,C[Si](C)(C)O[Si](C)(C)O[Si](C)(C)O[Si](C)(C)O[Si](C)(C)C [dodecamethylpentasiloxane]
–,–,0.0008201 ± 0.00017,0.002003 ± 0.00042,0.004666 ± 0.00099,0.01041 ± 0.0022,0.02229 ± 0.0047,0.046 ± 0.0098,0.09169 ± 0.019,–,–,–,–,–,C[Si]1(C)O[Si](C)(C)O[Si](C)(C)O[Si](C)(C)O[Si](C)(C)O[Si](C)(C)O[Si](C)(C)O[Si](C)(C)O[Si](C)(C)O[Si](C)(C)O1 [icosamethylcyclodecasiloxane]
0.3545 ± 0.075,0.6537 ± 0.14,1.165 ± 0.25,2.011 ± 0.43,–,–,–,–,–,–,–,0.04458 ± 0.0095,0.09293 ± 0.02,0.1853 ± 0.039,C[Si]1(C)O[Si](C)(C)O[Si](C)(C)O[Si](C)(C)O[Si](C)(C)O1 [decamethylcyclopentasiloxane]
0.04948 ± 0.01,0.09584 ± 0.02,0.1789 ± 0.038,0.3228 ± 0.069,0.5646 ± 0.12,0.9595 ± 0.2,1.588 ± 0.34,2.563 ± 0.54,4.044 ± 0.86,–,–,–,–,–,C[Si]1(C)O[Si](C)(C)O[Si](C)(C)O[Si](C)(C)O[Si](C)(C)O[Si](C)(C)O1 [dodecamethylcyclohexasiloxane]

# — the NIST ThermoML archive (doi:10.1021/je100835n)
